Experimental data reported in BindingDB's records for patent WO2022081807 (THE BROAD INSTITUTE, INC., 2022).
pIC50: −log10 of the molar value.

Target: T1, Histone acetyltransferase KAT6A [507-778] (Human, UniProt Q92794)
T1 construct: 507-778
Experiment: Kat6a Activity Assay

T1 sequence (Q92794 whole entry): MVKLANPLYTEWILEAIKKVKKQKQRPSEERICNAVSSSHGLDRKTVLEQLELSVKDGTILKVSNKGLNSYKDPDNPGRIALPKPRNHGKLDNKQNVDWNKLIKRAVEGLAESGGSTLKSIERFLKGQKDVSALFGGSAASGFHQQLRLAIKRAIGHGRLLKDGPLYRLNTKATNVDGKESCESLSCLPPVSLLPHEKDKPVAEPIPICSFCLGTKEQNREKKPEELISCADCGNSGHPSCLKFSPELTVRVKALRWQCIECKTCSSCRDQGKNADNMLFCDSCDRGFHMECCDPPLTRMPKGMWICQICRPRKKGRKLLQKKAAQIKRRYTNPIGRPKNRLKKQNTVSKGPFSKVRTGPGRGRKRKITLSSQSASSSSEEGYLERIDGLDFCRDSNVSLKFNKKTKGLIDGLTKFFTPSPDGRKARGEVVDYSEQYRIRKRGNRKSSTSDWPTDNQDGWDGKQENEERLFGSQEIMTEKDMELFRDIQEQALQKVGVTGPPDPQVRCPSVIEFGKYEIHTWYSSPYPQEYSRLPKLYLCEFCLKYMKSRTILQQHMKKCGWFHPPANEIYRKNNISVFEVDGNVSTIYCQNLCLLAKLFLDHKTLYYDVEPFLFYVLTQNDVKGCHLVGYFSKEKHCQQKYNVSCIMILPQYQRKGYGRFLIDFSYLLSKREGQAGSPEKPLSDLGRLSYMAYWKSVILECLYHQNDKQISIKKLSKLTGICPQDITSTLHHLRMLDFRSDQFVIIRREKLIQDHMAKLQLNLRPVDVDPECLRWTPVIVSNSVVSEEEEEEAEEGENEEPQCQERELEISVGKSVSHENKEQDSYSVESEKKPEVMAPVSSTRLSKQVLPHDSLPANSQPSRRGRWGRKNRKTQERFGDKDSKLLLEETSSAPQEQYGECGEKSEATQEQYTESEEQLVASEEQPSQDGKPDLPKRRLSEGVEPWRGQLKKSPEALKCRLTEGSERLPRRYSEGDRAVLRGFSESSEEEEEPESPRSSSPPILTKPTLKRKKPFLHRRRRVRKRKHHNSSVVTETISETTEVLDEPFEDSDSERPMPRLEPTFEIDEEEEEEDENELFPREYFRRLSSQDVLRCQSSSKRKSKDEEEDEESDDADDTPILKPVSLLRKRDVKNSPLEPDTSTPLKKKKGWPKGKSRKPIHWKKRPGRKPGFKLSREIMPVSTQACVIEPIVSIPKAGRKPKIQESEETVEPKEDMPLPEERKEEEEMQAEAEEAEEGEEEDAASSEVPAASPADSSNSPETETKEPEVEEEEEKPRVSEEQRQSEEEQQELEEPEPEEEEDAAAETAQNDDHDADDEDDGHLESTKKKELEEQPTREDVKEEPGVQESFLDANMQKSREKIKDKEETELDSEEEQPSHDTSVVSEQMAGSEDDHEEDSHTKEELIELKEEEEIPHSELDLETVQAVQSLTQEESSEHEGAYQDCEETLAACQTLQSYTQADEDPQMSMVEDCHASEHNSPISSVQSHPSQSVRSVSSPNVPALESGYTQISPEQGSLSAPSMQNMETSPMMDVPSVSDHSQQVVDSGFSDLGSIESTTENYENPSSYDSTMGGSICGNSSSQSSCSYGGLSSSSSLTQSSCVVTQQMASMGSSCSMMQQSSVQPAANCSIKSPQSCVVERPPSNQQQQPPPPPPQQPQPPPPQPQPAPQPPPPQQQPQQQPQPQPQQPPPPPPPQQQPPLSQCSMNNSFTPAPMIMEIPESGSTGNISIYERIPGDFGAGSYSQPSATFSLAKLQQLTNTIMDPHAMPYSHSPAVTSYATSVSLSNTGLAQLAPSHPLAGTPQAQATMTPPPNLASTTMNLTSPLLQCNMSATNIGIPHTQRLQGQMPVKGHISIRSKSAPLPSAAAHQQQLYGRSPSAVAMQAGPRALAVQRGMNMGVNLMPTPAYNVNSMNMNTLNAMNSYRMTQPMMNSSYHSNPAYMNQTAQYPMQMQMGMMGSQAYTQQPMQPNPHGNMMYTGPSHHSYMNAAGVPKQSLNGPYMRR

Compound	pIC50
O=C(NS(=O)(=O)c1c(NCC(F)F)cccc1C(F)(F)F)c1cc2c(F)cc(N3CCC3)cc2o1 [WO2022081807, Example 92]	6.33
COc1ccc(C(C)C)cc1S(=O)(=O)NC(=O)c1cc2c(F)cc(N3CCC3)cc2o1 [WO2022081807, Example 128]	8.09
CCOc1ccc(Br)cc1S(=O)(=O)NC(=O)c1cc2c(F)cc(N3CCC3)cc2o1 [WO2022081807, Example 135]	7.77
CC(C)c1ccc(C(C)C)c(S(=O)(=O)NC(=O)c2cc3c(F)cc(N4CCC4)cc3o2)c1 [WO2022081807, Example 30]	7.60
CCOc1cccc(Oc2ccccc2)c1S(=O)(=O)NC(=O)c1cc2c(F)cc(N3CCC3)cc2o1 [WO2022081807, Example 7]	8.38
CCc1cc(S(=O)(=O)NC(=O)c2cc3c(F)cc(N4CCC4)cc3o2)c(C)s1 [WO2022081807, Example 36]	6.44
O=C(NS(=O)(=O)c1cc(Br)ccc1OC(F)(F)F)c1cc2c(F)cc(N3CCC3)cc2o1 [WO2022081807, Example 82]	7.72
CN(C(=O)Oc1ccccc1S(=O)(=O)NC(=O)c1cc2c(F)cc(N3CCC3)cc2o1)c1ccccc1 [WO2022081807, Example 62]	6.71
O=C(NS(=O)(=O)c1ccccc1OC1CC1)c1cc2c(F)cc(N3CCC3)cc2o1 [WO2022081807, Example 131]	7.64
Cc1ccc(OC(C)C)c(S(=O)(=O)NC(=O)c2cc3c(F)cc(N4CCC4)cc3o2)c1 [WO2022081807, Example 134]	7.74
Cc1cccc(C(C)C)c1S(=O)(=O)NC(=O)c1cc2c(F)cc(N3CCC3)cc2o1 [WO2022081807, Example 53]	7.15
CC(C)Oc1cccc(Br)c1S(=O)(=O)NC(=O)c1cc2c(F)cc(N3CCC3)cc2o1 [WO2022081807, Example 39]	7.10
C[C@@H](Oc1ccccc1S(=O)(=O)NC(=O)c1cc2c(F)cc(N3CCC3)cc2o1)C(F)(F)F [WO2022081807, Example 14]	7.55
CCOc1cccc(C(C)C)c1S(=O)(=O)NC(=O)c1cc2c(F)cc(N3CCC3)cc2o1 [WO2022081807, Example 23]	7.54
C[C@H](Oc1ccccc1S(=O)(=O)NC(=O)c1cc2c(F)cc(N3CCC3)cc2o1)C(F)(F)F [WO2022081807, Example 15]	7.33
CN(C)c1ccccc1S(=O)(=O)NC(=O)c1cc2c(F)cc(N3CCC3)cc2o1 [WO2022081807, Example 11]	8.12
Cc1ccc(OCC2CCCC2)c(S(=O)(=O)NC(=O)c2cc3c(F)cc(N4CCC4)cc3o2)c1 [WO2022081807, Example 9]	7.68
O=C(NS(=O)(=O)c1cccc2c1OCC2)c1cc2c(F)cc(N3CCC3)cc2o1 [WO2022081807, Example 18]	7.62
CC(Oc1ccccc1S(=O)(=O)NC(=O)c1cc2c(F)cc(N3CCC3)cc2o1)C(F)(F)F (racemic) [WO2022081807, Example 13]	7.72
Cc1ccc2cccc(S(=O)(=O)NC(=O)c3cc4c(F)cc(N5CCC5)cc4o3)c2n1 [WO2022081807, Example 130]	7.85
CCOc1ccccc1S(=O)(=O)NC(=O)c1cc2c(F)cc(N3CC(C)(F)C3)cc2o1 [WO2022081807, Example 116]	5.64

Next, values leading:

pIC50	Compound
7.92	COc1ccc(-c2cccc(F)c2)cc1S(=O)(=O)NC(=O)c1cc2c(F)cc(N3CCC3)cc2o1 [WO2022081807, Example 198]
6.29	CCS(=O)(=O)c1nc2ccccn2c1S(=O)(=O)NC(=O)c1cc2c(F)cc(N3CC(F)C3)cc2o1 [WO2022081807, Example 167]
7.70	COc1ccc(C)cc1S(=O)(=O)NC(=O)c1cc2c(F)cc(N3CCC3)cc2o1 [WO2022081807, Example 156]
7.89	O=C(NS(=O)(=O)c1cccc2ccc(Cl)nc12)c1cc2c(F)cc(N3CC(F)C3)cc2o1 [WO2022081807, Example 154]
7.59	COc1ccc(C)cc1S(=O)(=O)NC(=O)c1cc2c(F)cc(N3CC(F)C3)cc2o1 [WO2022081807, Example 158]
5.92	CC1(C)CCN1c1cc(F)c2cc(C(=O)NS(=O)(=O)c3ccccc3-c3ccccc3)oc2c1 [WO2022081807, Example 217]
7.55	O=C(NS(=O)(=O)c1cccc2c1OC(F)(F)C(F)(F)O2)c1cc2c(F)cc(N3CCC3)cc2o1 [WO2022081807, Example 140]
7.68	O=C(NS(=O)(=O)c1cc(Br)cc2c1OCC2)c1cc2c(F)cc(N3CCC3)cc2o1 [WO2022081807, Example 177]
6.51	Cc1ccc(S(=O)(=O)NC(=O)c2cc3c(F)cc(N4CCC4)cc3o2)c2ccncc12 [WO2022081807, Example 191]
7.59	COc1cccc(N2CCOCC2)c1S(=O)(=O)NC(=O)c1cc2c(F)cc(N3CCC3)cc2o1 [WO2022081807, Example 137]
7.57	CCOc1ccc(C(F)(F)F)cc1S(=O)(=O)NC(=O)c1cc2c(F)cc(N3CCC3)cc2o1 [WO2022081807, Example 209]
7.57	COc1ccc(Br)cc1S(=O)(=O)NC(=O)c1cc2c(F)cc(N3CCC3)cc2o1 [WO2022081807, Example 139]
7.21	Cc1ccc2cccc(S(=O)(=O)NC(=O)c3cc4c(F)cc(N5CCC5C)cc4o3)c2n1 (stereo not drawn) [WO2022081807, Example 221]
7.96	CCOc1ccccc1S(=O)(=O)NC(=O)c1cc2c(F)cc(N3CC[C@@H]3C(N)=O)cc2o1 [WO2022081807, Example 169]
9.09	COc1ccc(N2CCCC2c2ccccc2)cc1S(=O)(=O)NC(=O)c1cc2c(F)cc(N3CCC3)cc2o1 (stereo not drawn) [WO2022081807, Example 201]
8.22	COc1ccc(C2=CCN(C(=O)OC(C)(C)C)CC2)cc1S(=O)(=O)NC(=O)c1cc2c(F)cc(N3CCC3)cc2o1 [WO2022081807, Example 197]
7.96	CCOc1ccc(CC)cc1S(=O)(=O)NC(=O)c1cc2c(F)cc(N3CC(F)C3)cc2o1 [WO2022081807, Example 153]

Target: Histone acetyltransferase KAT6B (Human, UniProt Q8WYB5)
Experiment: Kat6b Activity Assay
Method: In this case 50 nl DMSO were used instead of compounds. […] IC50 values were determined by regression analysis based on a 4 parameter equation (minimum, maximum, ICM, Hill; Y = Max + (Min - Max) / (1 + (X/ICso) Hill) using the Screener Software (Genedata).

Chain of Histone acetyltransferase KAT6B (Q8WYB5 whole entry): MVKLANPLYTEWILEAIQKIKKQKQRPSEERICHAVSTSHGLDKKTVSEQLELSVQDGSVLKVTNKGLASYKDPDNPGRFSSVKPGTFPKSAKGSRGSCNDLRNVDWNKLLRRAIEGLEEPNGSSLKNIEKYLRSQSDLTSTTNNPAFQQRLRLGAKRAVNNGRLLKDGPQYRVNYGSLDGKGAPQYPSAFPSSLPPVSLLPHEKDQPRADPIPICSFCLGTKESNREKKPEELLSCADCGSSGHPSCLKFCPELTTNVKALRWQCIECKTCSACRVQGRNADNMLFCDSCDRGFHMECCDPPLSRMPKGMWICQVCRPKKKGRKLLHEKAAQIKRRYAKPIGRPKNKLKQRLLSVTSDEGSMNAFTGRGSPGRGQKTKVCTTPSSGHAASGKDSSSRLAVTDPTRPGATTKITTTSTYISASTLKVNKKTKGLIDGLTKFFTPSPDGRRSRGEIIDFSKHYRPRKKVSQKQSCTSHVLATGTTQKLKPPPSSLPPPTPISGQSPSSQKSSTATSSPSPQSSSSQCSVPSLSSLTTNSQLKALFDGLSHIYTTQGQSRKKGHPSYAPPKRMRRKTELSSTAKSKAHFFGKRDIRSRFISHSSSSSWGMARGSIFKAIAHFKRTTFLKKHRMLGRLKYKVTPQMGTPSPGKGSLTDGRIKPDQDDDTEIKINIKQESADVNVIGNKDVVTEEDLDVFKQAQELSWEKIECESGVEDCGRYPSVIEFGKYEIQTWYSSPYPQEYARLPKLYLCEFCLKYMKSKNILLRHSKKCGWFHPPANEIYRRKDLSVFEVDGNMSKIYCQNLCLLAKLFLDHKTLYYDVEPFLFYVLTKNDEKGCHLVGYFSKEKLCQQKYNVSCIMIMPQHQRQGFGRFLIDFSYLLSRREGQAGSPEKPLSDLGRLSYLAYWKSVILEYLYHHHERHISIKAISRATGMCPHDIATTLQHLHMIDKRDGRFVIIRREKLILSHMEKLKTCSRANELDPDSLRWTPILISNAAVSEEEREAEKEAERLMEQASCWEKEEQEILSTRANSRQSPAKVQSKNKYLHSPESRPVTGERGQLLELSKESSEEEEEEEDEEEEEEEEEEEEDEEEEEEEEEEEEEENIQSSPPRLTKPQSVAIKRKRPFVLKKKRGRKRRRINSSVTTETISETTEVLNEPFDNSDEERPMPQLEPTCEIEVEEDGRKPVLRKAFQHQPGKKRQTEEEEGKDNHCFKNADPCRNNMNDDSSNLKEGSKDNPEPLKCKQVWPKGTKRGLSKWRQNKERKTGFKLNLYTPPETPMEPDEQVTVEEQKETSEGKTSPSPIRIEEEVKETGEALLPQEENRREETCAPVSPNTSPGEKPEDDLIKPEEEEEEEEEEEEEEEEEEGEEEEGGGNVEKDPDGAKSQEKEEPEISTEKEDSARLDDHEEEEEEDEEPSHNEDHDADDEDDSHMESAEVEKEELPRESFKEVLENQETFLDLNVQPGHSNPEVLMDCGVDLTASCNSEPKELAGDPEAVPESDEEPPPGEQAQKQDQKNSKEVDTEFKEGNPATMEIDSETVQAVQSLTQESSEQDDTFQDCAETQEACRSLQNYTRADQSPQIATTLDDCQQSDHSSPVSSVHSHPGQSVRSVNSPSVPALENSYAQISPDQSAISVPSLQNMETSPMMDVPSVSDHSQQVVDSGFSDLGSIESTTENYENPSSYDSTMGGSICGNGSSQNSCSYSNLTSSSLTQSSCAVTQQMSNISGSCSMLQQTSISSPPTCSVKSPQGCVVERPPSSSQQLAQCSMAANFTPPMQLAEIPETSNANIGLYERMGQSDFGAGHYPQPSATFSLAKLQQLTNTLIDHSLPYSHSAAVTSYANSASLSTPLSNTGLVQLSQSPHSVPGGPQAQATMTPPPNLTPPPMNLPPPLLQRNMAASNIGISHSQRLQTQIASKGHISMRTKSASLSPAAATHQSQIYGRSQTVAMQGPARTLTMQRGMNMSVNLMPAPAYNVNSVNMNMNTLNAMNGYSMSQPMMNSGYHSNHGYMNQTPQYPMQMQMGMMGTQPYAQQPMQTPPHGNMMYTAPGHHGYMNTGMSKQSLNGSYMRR

Compound	pIC50
COc1ccc(C(C)C)cc1S(=O)(=O)NC(=O)c1cc2c(F)cc(N3CCC3)cc2o1 [WO2022081807, Example 128]	7.82
CCOc1ccc(C(C)(C)C)cc1S(=O)(=O)NC(=O)c1cc2c(F)cc(N3CC(F)C3)cc2o1 [WO2022081807, Example 113]	7.92
CC(C)c1cccnc1S(=O)(=O)NC(=O)c1cc2c(F)cc(N3CCC3)cc2o1 [WO2022081807, Example 79]	7.85
Cc1ccc2cccc(S(=O)(=O)NC(=O)c3cc4c(F)cc(N5CCC5)cc4o3)c2n1 [WO2022081807, Example 130]	7.70

Further lines, results first:

pIC50	Compound
7.82	CC(C)c1ccc(OCc2ccccc2)c(S(=O)(=O)NC(=O)c2cc3c(F)cc(N4CCC4)cc3o2)c1 [WO2022081807, Example 213]
7.54	CC(C)c1ccc(OCC2CC2(F)F)c(S(=O)(=O)NC(=O)c2cc3c(F)cc(N4CCC4)cc3o2)c1 (racemic) [WO2022081807, Example 231]
7.55	CC(C)Oc1ccc(C(C)(C)C)cc1S(=O)(=O)NC(=O)c1cc2c(F)cc(N3CCC3)cc2o1 [WO2022081807, Example 229]
7.89	CC(C)(C)c1ccc(OC2CCC2)c(S(=O)(=O)NC(=O)c2cc3c(F)cc(N4CCC4)cc3o2)c1 [WO2022081807, Example 228]
7.70	CC(C)c1ccc(OCC2CC2)c(S(=O)(=O)NC(=O)c2cc3c(F)cc(N4CCC4)cc3o2)c1 [WO2022081807, Example 214]
7.70	Cc1ccc2cccc(S(=O)(=O)NC(=O)c3cc4c(F)cc(N5CC(F)C5)cc4o3)c2n1 [WO2022081807, Example 152]
